Measured values taken from the NIST ThermoML archive (doi:10.1016/j.fluid.2007.04.023).
Numbers after ± are expanded uncertainties.

Conditions: Liquid, Vibrating tube method

In the case of `CCCCCCCCCCCC` [dodecane], the mass density (313.09 K, 1022 kPa) is reported as 735.79 ± 0.33 kg/m3, the mass density (313.09 K, 2023 kPa) is reported as 736.6 ± 0.34 kg/m3 and the mass density (313.09 K, 3017 kPa) is reported as 737.36 ± 0.35 kg/m3. The mass density (313.09 K, 4026 kPa) was 738.14 ± 0.36 kg/m3, the mass density (313.09 K, 5023 kPa) was 738.89 ± 0.38 kg/m3 and the mass density (313.09 K, 6032 kPa) was 739.66 ± 0.39 kg/m3. For the same compound, the mass density (313.09 K, 7011 kPa) was 740.38 ± 0.4 kg/m3, the mass density (313.09 K, 8009 kPa) was 741.15 ± 0.41 kg/m3 and the mass density (313.09 K, 9026 kPa) was 741.91 ± 0.43 kg/m3. It also gave a mass density (313.09 K, 10008 kPa) of 742.66 ± 0.44 kg/m3, a mass density (313.09 K, 11022 kPa) of 743.39 ± 0.45 kg/m3 and a mass density (313.09 K, 12012 kPa) of 744.09 ± 0.46 kg/m3. It also gave a mass density (313.09 K, 13019 kPa) of 744.82 ± 0.48 kg/m3, a mass density (313.09 K, 14017 kPa) of 745.55 ± 0.49 kg/m3 and a mass density (313.09 K, 15025 kPa) of 746.22 ± 0.5 kg/m3. It also gave a mass density (313.09 K, 16025 kPa) of 746.91 ± 0.51 kg/m3, a mass density (313.09 K, 17015 kPa) of 747.58 ± 0.52 kg/m3 and a mass density (313.09 K, 18022 kPa) of 748.26 ± 0.54 kg/m3. It also gave a mass density (313.09 K, 19025 kPa) of 748.93 ± 0.55 kg/m3, a mass density (313.09 K, 20013 kPa) of 749.59 ± 0.56 kg/m3 and a mass density (313.09 K, 21015 kPa) of 750.23 ± 0.57 kg/m3. It also gave a mass density (313.09 K, 22011 kPa) of 750.9 ± 0.58 kg/m3, a mass density (313.09 K, 23021 kPa) of 751.53 ± 0.6 kg/m3 and a mass density (313.09 K, 24015 kPa) of 752.21 ± 0.61 kg/m3. The mass density (313.09 K, 24354 kPa) was 752.42 ± 0.61 kg/m3, the mass density (322.97 K, 1025 kPa) was 728.33 ± 0.33 kg/m3 and the mass density (322.97 K, 2028 kPa) was 729.17 ± 0.34 kg/m3. It also gave a mass density (322.97 K, 3026 kPa) of 729.97 ± 0.35 kg/m3, a mass density (322.97 K, 4034 kPa) of 730.78 ± 0.37 kg/m3 and a mass density (322.97 K, 5021 kPa) of 731.59 ± 0.38 kg/m3. For the same compound, the mass density (322.97 K, 6017 kPa) was 732.37 ± 0.39 kg/m3, the mass density (322.97 K, 7017 kPa) was 733.17 ± 0.41 kg/m3 and the mass density (322.97 K, 8041 kPa) was 733.99 ± 0.42 kg/m3. The mass density (322.97 K, 9015 kPa) was 734.73 ± 0.43 kg/m3, the mass density (322.97 K, 10016 kPa) was 735.5 ± 0.44 kg/m3 and the mass density (322.97 K, 11019 kPa) was 736.28 ± 0.46 kg/m3. The mass density (322.97 K, 12011 kPa) was 737.01 ± 0.47 kg/m3, the mass density (322.97 K, 13028 kPa) was 737.78 ± 0.48 kg/m3 and the mass density (322.97 K, 14041 kPa) was 738.53 ± 0.49 kg/m3. The mass density (322.97 K, 14994 kPa) was 739.22 ± 0.51 kg/m3, the mass density (322.97 K, 16027 kPa) was 739.96 ± 0.52 kg/m3 and the mass density (322.97 K, 17001 kPa) was 740.64 ± 0.53 kg/m3. It also gave a mass density (322.97 K, 18015 kPa) of 741.35 ± 0.54 kg/m3, a mass density (322.97 K, 19032 kPa) of 742.07 ± 0.56 kg/m3 and a mass density (322.97 K, 20004 kPa) of 742.74 ± 0.57 kg/m3. For the same compound, the mass density (322.97 K, 21009 kPa) was 743.43 ± 0.58 kg/m3, the mass density (322.97 K, 22023 kPa) was 744.14 ± 0.59 kg/m3 and the mass density (322.97 K, 23009 kPa) was 744.8 ± 0.6 kg/m3. For the same compound, the mass density (322.97 K, 24013 kPa) was 745.5 ± 0.62 kg/m3, the mass density (322.97 K, 24507 kPa) was 745.83 ± 0.62 kg/m3 and the mass density (332.8 K, 1023 kPa) was 721.08 ± 0.33 kg/m3. It also gave a mass density (332.8 K, 2019 kPa) of 721.96 ± 0.34 kg/m3, a mass density (332.8 K, 3022 kPa) of 722.81 ± 0.36 kg/m3 and a mass density (332.8 K, 4030 kPa) of 723.69 ± 0.37 kg/m3. The mass density (332.8 K, 5026 kPa) was 724.53 ± 0.38 kg/m3, the mass density (332.8 K, 6035 kPa) was 725.36 ± 0.4 kg/m3 and the mass density (332.8 K, 7014 kPa) was 726.16 ± 0.41 kg/m3. It also gave a mass density (332.8 K, 8025 kPa) of 727.03 ± 0.42 kg/m3, a mass density (332.8 K, 9017 kPa) of 727.84 ± 0.44 kg/m3 and a mass density (332.8 K, 10020 kPa) of 728.67 ± 0.45 kg/m3. The mass density (332.8 K, 11023 kPa) was 729.46 ± 0.46 kg/m3, the mass density (332.8 K, 12022 kPa) was 730.26 ± 0.47 kg/m3 and the mass density (332.8 K, 13004 kPa) was 731.04 ± 0.49 kg/m3. The mass density (332.8 K, 14008 kPa) was 731.81 ± 0.5 kg/m3, the mass density (332.8 K, 15018 kPa) was 732.57 ± 0.51 kg/m3 and the mass density (332.8 K, 16023 kPa) was 733.35 ± 0.53 kg/m3. It also gave a mass density (332.8 K, 17014 kPa) of 734.08 ± 0.54 kg/m3, a mass density (332.8 K, 18006 kPa) of 734.82 ± 0.55 kg/m3 and a mass density (332.8 K, 19024 kPa) of 735.59 ± 0.56 kg/m3. The mass density (332.8 K, 20023 kPa) was 736.32 ± 0.58 kg/m3, the mass density (332.8 K, 21009 kPa) was 737.01 ± 0.59 kg/m3 and the mass density (332.8 K, 22009 kPa) was 737.73 ± 0.6 kg/m3. It also gave a mass density (332.8 K, 23018 kPa) of 738.45 ± 0.61 kg/m3, a mass density (332.8 K, 24018 kPa) of 739.17 ± 0.62 kg/m3 and a mass density (332.8 K, 24665 kPa) of 739.63 ± 0.63 kg/m3.
